From US20120122728A1, “Method Of Screening Drugs For Reversal Of Amyloid Beta Neurotoxicity” (UNIVERSITY OF CENTRAL FLORIDA RESEARCH FOUNDATION, INC., priority 2009, published 2012)

How the values were obtained:
[1] = system: cultured embryonic rat hippocampal neurons; assay: MEA extracellular recording of spontaneous firing of cultured hippocampal neurons exposed to Aβ; format: cell-based; set-up: time until spiking activity of the cells stopped: dose or concentration left out as unconfirmed
Experimental: The MEAs and accompanying accessories, including the temperature controller, stimulator, amplifier and MC_Rack V 3.5.8 data acquisition software were obtained from ALA Scientific (Westbury, N.Y.) and Multichannel Systems (Reutlingen, Germany). The MEAs comprised of a glass base that acted as a substrate, gold connector contacts and electrodes composed of titanium nitride. Rings were made of Sylgard184 (Dow Corning) (1 part curing base and 10 parts elastomer base, cured at 60 uC for 45 minutes) using glass molds and were attached onto the MEAs after surface modification. Recordings were obtained from 12-16 D. old cultures. Cultures were kept in the incubator between recording sessions.
N-1(3-[trimethoxysilyl]propyl)-diethylenetriamine (DETA) was used to modify the MEAs to enhance cell attachment since the use of synthetic substrates such as DETA, allows for reproducible and precise quantification of the culture substrate properties. Glass coverslips (18 mm diameter, Number 1; VWR) were cleaned in two steps. First, they were soaked in 50/50% HCl (37%) (VWR)/methanol (Sigma), followed by H2SO4 (98%) (VWR) treatment. Next, they were rinsed in double distilled water. The coverslips were then boiled in deionized water, rinsed with acetone, and oven dried. The MEAs were initially cleaned overnight in 2% Tergazyme (Sigma) detergent solution. They were then rinsed in distilled water and plasma cleaned in a plasma cleaner (Harrick Plasma) for 30 mins. The N-1(3-[trimethoxysilyl]propyl)-diethylenetriamine (DETA) (United Chemical Technologies) surface assembled monolayer (SAM) film was formed by the reaction of the cleaned surfaces with a 0.1% (v/v) mixture of the organosilane in toluene. The DETA/toluene solution containing the MEAs was heated to 70 uC, rinsed with toluene, reheated to 70 uC, and then oven dried. Surfaces were characterized using contact angle measurement and X-ray photoelectron spectroscopy (XPS) as described previously.
(§1) All applied procedures were approved by the Institutional Animal Care and Use Committee of UCF. The protocol was modified from previously published work concerning embryonic rat hippocampal cultures. Pregnant rats, 18 days in gestation, obtained from Charles River were euthanized with carbon dioxide and the fetuses were collected in ice cold Hibernate E (BrainBits)/B27/Glutamax™/Antibiotic-Antimycotic (Invitrogen) (dissecting medium). Each fetus was decapitated and the whole brain was transferred to fresh ice cold dissecting medium. After isolation, the hippocampi were collected in a fresh tube of dissecting medium. Hippocampal neurons were obtained by triturating the tissue using a Pasteur pipette. In order to remove any debris from damaged cells the 1 ml cell suspension was layered over a 4 ml step gradient (Optipep diluted 0.505:0.495 (v/v) with the dissecting medium and then made to 15%, 20%, 25% and 35% (v/v) in the dissecting medium) followed by centrifugation for 15 min at 800 g and 4 uC. After centrifugation, one strong band of cells was obtained. This band of cells was resuspended in culture medium (Neurobasal/B27/Glutamax™/Antibiotic-Antimycotic) and plated at a density of 100 cells/mm2 on DETA coated coverslips for patch clamp electrophysiology and at 200 cells/mm2 on the MEAs.
(§2) Different concentrations of Aβ (1-42) (Bachem) aggregates were prepared according to the protocol by Klein [1] in Neurobasal medium without phenol red, and quantified using Immunoblots. Curcumin (Cayman Chemicals) was prepared and the concentration chosen according to previously published protocols.
In all experiments with MEAs Aβ was administered to the cells on day 16 in vitro. We chose experimental paradigms similar to those used for patch clamp electrophysiology, to study the potential therapeutic effects of curcumin. In coadministration experiments, cells were exposed to a mixture of 100 nM Aβ and 1 mM Curcumin for 24 hrs, and recordings were performed. […]

[2] = system: cultured embryonic rat hippocampal neurons; assay: Whole cell patch clamp electrophysiology of hippocampal neurons exposed to Aβ; format: cell-based
Excerpt: as §1, §2
For patch clamp electrophysiology experiments, Aβ was administered to the cells on day 10 in vitro and recordings were performed after 24 hrs to obtain baseline values for control cells and Aβ treated cells. In coadministration experiments, a mixture of 100 nM Aβ and 1 mM curcumin was administered for 24 hrs after which patch clamp electrophysiology recordings were performed. In sequential administration, cells were initially exposed to freshly aggregated Aβ alone, followed by replacement of the Aβ solution with curcumin for 24 hrs patch clamp recordings were performed 24 hrs after curcumin treatment. Whole-cell patch clamp recordings were performed at room temperature in a recording chamber on the stage of a Zeiss Axioscope 2 FS Plus upright microscope as described in [44].

Aβ oligomerization [3] = molecular target: T1, Aβ oligomerization (Homo sapiens, UniProt P05067); assay: Immunoblot of Aβ oligomers; format: biochemical; settings: immunoblot lane 2
Experimental: Different concentrations of Aβ (1-42) (Bachem) aggregates were prepared according to the protocol by Klein [1] in Neurobasal medium without phenol red, and quantified using Immunoblots. Curcumin (Cayman Chemicals) was prepared and the concentration chosen according to previously published protocols [20].

Aβ oligomerization [4] = molecular target: T1, Aβ oligomerization; settings: literature [20], compared with Ibuprofen; cited from earlier work
amyloid plaque burden = settings: transgenic APPsw mice; cited from earlier work
hippocampal cells = assay: Cell survival (live dead assay, MTT assay) after Aβ treatment; format: cell-based, rat
Experimental: To confirm this finding a MTT assay (3-[4,5-dimethylthiazol-2-yl]-2,5-diphenyl tetrazolium bromide) was performed on the amyloid treated cells and this supported the results obtained with the live dead assay.

[5] = all measured concentrations of Aβ

T1 sequence (P05067 672-713 limits assumed): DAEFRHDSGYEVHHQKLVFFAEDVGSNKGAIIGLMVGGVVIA

Compound | time at which drop in firing frequency reached a plateau ([1]; after curcumin and Aβ were coadministered) | time at which recovery of spontaneous firing was observed ([1]; after curcumin was applied post Aβ exposure) | ameliorating Aβ toxicity, coadministration versus administration after 24 h Aβ ([2]; low doses of curcumin) | Aβ oligomerization in the presence of Curcumin (Aβ oligomerization [3]) | Aβ oligomer formation and Aβ toxicity (Aβ oligomerization [4]) | amyloid plaque burden (amyloid plaque burden) | time until the cells stopped firing ([1]; 50 nM Aβ, lowest concentration) | time until spiking activity of the cells stopped ([1]; Aβ, highest concentration tested) | effect on spontaneous spiking activity [1, 5] | firing frequency preceding blockade of spontaneous activity [1, 5] | outward (K+) currents ([2]; 100 nM Aβ, 24 h) | resting membrane potential ([2]; 100 nM Aβ, 24 h) | spontaneous firing ([2]; 100 nM Aβ, 24 h, 30 exposed cells) | cell survival compared to the control (hippocampal cells; 100 nM Aβ, 24 hours and 7 days) | cell death (hippocampal cells; high concentrations of Aβ, cells on MEAs)
COc1cc(/C=C/C(=O)CC(=O)/C=C/c2ccc(O)c(OC)c2)ccc1O [curcumin] | about 18 hrs | around 10 hrs | more successful in ameliorating Aβ toxicity when coadministered with Aβ | apparent inhibition of Aβ oligomerization | inhibiting Aβ oligomer formation and Aβ toxicity at significantly lower concentrations than Ibuprofen | reduce amyloid plaque burden | – | – | – | – | – | – | – | – | –
Aβ: Amyloid beta (1-42) peptide (Bachem), soluble oligomer aggregates used as neurotoxicant [Aβ (1-42)] | – | – | – | – | – | – | about 11 h | about 150 min | completely abolishes spontaneous spiking activity | significant increase in firing frequency | increase in the amplitude of the outward (K^+) currents | depolarization in the resting membrane potential | no spontaneous action potentials were recorded | small differences in cell survival compared to the control | high cell death
